Assay [1] deals with HepG2 (human hepatocellular carcinoma). Description: MTT cytotoxicity assay, HepG2. The assay is classed as cell-based. The conditions noted are these: Homo sapiens, HepG2; MTT, 72 h treatment; read-out: Half Maximal Inhibitory Concentration (IC50) HepG2. In a few lines:
(§1)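 Cells seeded at 3 × 10^3/well in DMEM/10% FBS, then treated 72 h with 3.125–50 μM compound in DMSO. MTT (5 mg/mL) added for 4 h, formazan dissolved in DMSO, absorbance read at 490 nm; inhibition relative to untreated control, IC50 as 50% growth inhibition, triplicate runs.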
A general note: Tetrazolium assays rely on reduction of a dye to a coloured formazan, in cell work by metabolically active cells.

In assay [2] the test system is MDCK (Madin–Darby canine kidney) cells. Nature of the assay: MTT toxicity evaluation, MDCK. The assay is classed as cell-based. The following applies: Canis lupus familiaris, MDCK, 72 h treatment, non-tumor cells, read-out: Half Maximal Inhibitory Concentration (IC50) MDCK. The gist of the method: as §1
Assay [3] relates to HepG2, A549, MCF-7, H9c2, and MDCK cells. Description: MTT assay, panel of five cell lines (summary in discussion). It counts as cell-based. The following applies: read-out: IC50 values ranging (cell lines not specified). The method, then:
A series of different esters of He were designed and synthesized. All these compounds were screened for cytotoxic activity employing a panel of five cell lines, including HepG2, A549, MCF-7, H9c2, and MDCK cells, using the MTT assay. […] Further intensive modifications at C-23 and studies are currently being performed in our research group, and the results will be reported in due course.
The antitumor activity of these compounds were evaluated on MCF-7, A549, HepG2, MDCK, and H9c2 cell lines using the MTT assay. Cells at a density of 3 × 10^3 cells/well were plated in a 96-multiwell plate in DMEM containing 10% FBS for 24 h at 37 °C with 5% CO2. Then, cells were treated for 72 h with the required concentrations (3.125, 6.25, 12.5, 25, or 50 μM) of the compounds and reference drugs (He and DDP) dissolved with the vehicle DMSO. After that, the culture substrate was replaced with 200 μL of DMEM containing 20 μL of MTT solution at 5 mg/mL and incubated for 4 h. The supernatant was removed and the dissolved formazans precipitated with 120 μL of DMSO. Wells without drugs were used as blanks. A plate reader was used to determine the absorbance at 490 nm. The above steps were repeated three times. The IC50 values were defined as the concentration of the compound which gave 50% growth inhibition, and they were calculated using Graph Pad Prism 5. […]

For another assay, the system named is A549 cells. Description: DAPI staining, nuclear morphology. The following applies: 6 μM, 72 h. The assay is classed as cell-based, human. The method, then: As pictured in Figure 6, in the control group, the nucleus was intact and evenly colored. […] When the concentration of the drug increased, nuclear condensation, nuclear fragmentation, and the formation of apoptotic bodies appeared.
A549 cells in the logarithmic growth phase were seeded in 12-well plates (1.2 × 10^4 cells/well). After incubation for 24 h at 37 °C with 5% CO2, various concentrations (0, 2, 4, or 6 μM) of compound 9 were added to the cultures, and the plate was incubated for further 72 h. Then, we discarded the cell culture fluid, washed twice with PBS, and fixed the cells with 4% paraformaldehyde for 10 min. After that, we added the appropriate amount of DAPI (1 mg/mL; Molecular Probes/Invitrogen Life Technologies, Carlsbad, CA, USA) to cover the bottom of the board, after staining for 5 min in the dark.

Assay [4] deals with MCF-7 (human mammary cancer). Nature of the assay: MTT cytotoxicity assay, MCF-7. The assay is classed as cell-based. The following applies: Homo sapiens, MCF7, 72 h treatment, read-out: Half Maximal Inhibitory Concentration (IC50) MCF-7. The gist of the method:
as §1

As to `Cc1cncc(C(=O)OCCOC(=O)[C@]23CCC(C)(C)CC2C2=CCC4[C@@]5(C)CC[C@H](O)[C@@](C)(CO)C5CC[C@@]4(C)[C@]2(C)CC3)n1` (stereo partly drawn) [Compound 9, 2-(((4aS,6aS,6bR,9R,10S,12aR)-10-Hydroxy-9-(hydroxymethyl)-2,2,6a,6b,9,12a-hexamethyl-1,2,3,4,4a,5,6,6a,6b,7,8,8a,9,10,11,12,12a,12b,13,14b-icosahydropicene-4a-carbonyl)oxy)ethyl-6-methylpyrazine-2-carboxylate], the IC50 is 8.71 ± 0.38 µM in assay [1], 14.11 ± 0.04 µM in assay [2], 3.22 to 4.48 µM in assay [3] and 8.73 ± 1.49 µM in assay [4]. Moreover, the “nuclear morphology, DAPI staining” value in the assay on A549 cells was “the number of cells decreased drastically, the shape of the cells became irregular, and nuclear fragmentation occurred”.

For the origin of these results see PMC6213900, “Design, Synthesis, and Cytotoxic Analysis of Novel Hederagenin–Pyrazine Derivatives Based on Partial Least Squares Discriminant Analysis” (International Journal of Molecular Sciences, 2018).
